Assay [1] concerns C. albicans ATCC 90028. Briefly: Broth dilution IC50 determination. The format is cell-based. Conditions: Candida albicans, ATCC90028, SD broth, 37°C, 24 h, OD 600 nm, read-out: Anti-Candida Activity (IC50± S.D.) C. albicans ATCC90028. Here is the method: (§1) Broth dilution technique was employed to determine the IC50 values of all the synthesized 1,2,3 triazole derivatives (3a-c) against C. albicans ATCC 90028, C. glabrata ATCC 90030, C. tropicalis ATCC 750 and four clinical isolates of C. albicans namely D27, D31, D39 (FLC-sensitive) and D15.9 (FLC-resistant). The strains were maintained on yeast extract:peptone:dextrose ([…]) nutrient agar (2.5%) slants at 4°C. The test compounds were dissolved in DMSO with less than 4% concentration of it in the final test volume. Different concentrations (1000… 7.8 μg/mL) of test compounds in Sabouraud dextrose (SD) broth medium were dispensed into the wells, then inoculated with the test organism with approx. 2.5 × 10^3 cells/mL and incubated at 37°C for 24 h. After incubation period, the optical density was measured at 600 nm by using Thermo Scientific Multiskan Go plate reader. […] All the experiments were done in triplicate at separate times.
For orientation: In broth dilution the organism is exposed to a series of concentrations in liquid medium.

Assay [2] has as its system C. albicans D27 (FLC-sensitive clinical isolate). The assay can be described thus: Broth dilution IC50 determination. The format is cell-based. The following applies: Candida albicans, 24 h; read-out: Anti-Candida Activity (IC50± S.D.) C. albicans D27. As to the method: as §1
The subject of assay [3] is C. albicans D31 (FLC-sensitive clinical isolate). The assay can be described thus: Broth dilution IC50 determination. Type of assay: cell-based. The following applies: Candida albicans, 24 h; read-out: Anti-Candida Activity (IC50± S.D.) C. albicans D31. Here is the method: as §1
The subject of assay [4] is C. albicans D39 (FLC-sensitive clinical isolate). Briefly: Broth dilution IC50 determination. The following applies: Candida albicans, 24 h; read-out: Anti-Candida Activity (IC50± S.D.) C. albicans D39. Type of assay: cell-based. Here is the method: as §1
The test system of assay [5] is C. glabrata ATCC 90030. The assay can be described thus: Broth dilution IC50 determination. The format is cell-based. The following applies: Nakaseomyces glabratus, ATCC90030, SD broth, 37°C, 24 h, OD 600 nm, read-out: Anti-Candida Activity (IC50± S.D.) C. glabrata ATCC90030. Here is the method:
as §1

Assay [6] concerns C. tropicalis ATCC 750. Briefly: Broth dilution IC50 determination. The format is cell-based. The following applies: Candida tropicalis, ATCC750, SD broth, 37°C, 24 h, OD 600 nm, read-out: Anti-Candida Activity (IC50± S.D.) C. tropicalis ATCC750. As to the method:
as §1

The test system of assay [7] is C. albicans D15.9 (FLC-resistant clinical isolate). Briefly: Broth dilution IC50 / MIC determination. Conditions: Candida albicans; for IC50: 24 h, read-out: Anti-Candida Activity (IC50± S.D.) C. albicans D15.9. Type of assay: cell-based. As to the method:
as §1

The subject of assay [8] is C. albicans ATCC 90028, C. albicans D27 and C. albicans D15.9. The assay can be described thus: Growth assay (growth curve), all three strains. Type of assay: cell-based. As to the method: The C. albicans cells were freshly revived by subculture on the SD agar plate. A loopful of inoculum was introduced into the SD broth and cells were grown for 16 h at 37°C before use. Approximately 2×10^3 cells/mL were then inoculated into the freshly prepared 50 mL sterile SD medium. […] At predetermined time periods (0, 2, 4, 6, 8, 10, 12, 14, 16, 18, 20 22, and 24 after incubation with agitation at 37°C), 1 mL aliquot of each sample was removed from the conical flask and growth was measured tubidometrically at 600 nm using Thermo Multiskan spectrophotometer. Optical density was recorded for each concentration against time (h).

Assay [9] relates to C. albicans ATCC 90028, C. albicans D27 (FLC-susceptible) and C. albicans D15.9 (FLC-resistant). Briefly: Time kill curve study, three strains. Conditions: for Fungicidal or fungistatic nature: time kill curves, at 2MIC. The format is cell-based. Here is the method: Time-kill curves were used for testing the fungicidal or fungistatic nature of the lead inhibitors 3a and 3b. The experimental procedure was performed according to the method reported by Wang et al.. C. albicans ATCC 90028, C. albicans D27 (FLC-susceptible) and C. albicans D15.9 (FLC-resistant) strains were used as test organisms. Fluconazole was used as a positive control. Freshly prepared sterile YEPD medium was inoculated by fresh culture (approx. 2×10^3 cells) of test organisms in different conical flasks. The cells were exposed to the test compounds at 2MIC, MIC and MIC/2 values, separately. All the conical flasks having different sets of test compounds and concentrations were incubated at 37°C and 160 rpm. At predetermined time points (0, 4, 12, 24, and 48 h after incubation with agitation at 37°C), a 100-μL aliquot was removed from every solution and appropriately diluted in sterile water. A 100-μl aliquot from each dilution was spread over the YEPD agar plate. Colony counts were determined after incubation at 37°C for 24 h. All the time-kill curve experiments were conducted in duplicate and mean colony count data (log10 CFU/mL) were plotted as a function of time for each strain.

For assay [10], the target named is T1, plasma membrane H+ ATPase (Candida albicans, UniProt P28877).
T1 construct: endogenous in cells; host or cells: C. albicans ATCC 90028; clinical isolates C. albicans D27 (FLC-susceptible) and D15.9 (FLC-resistant); mid-log phase whole cells
The assay can be described thus: Proton extrusion measurement (H+ efflux). The format is cell-based, C. albicans ATCC 90028. Here is the method: The proton pumping activity of C. albicans was determined by monitoring acidification of external medium by measuring pH as describe earlier. In brief, the mid-log phase cells were harvested from SD medium by centrifugation at 3000 rpm for 15 min which is followed by three washings with phosphate buffer saline (PBS). A solution containing 0.1 M KCl and 0.1 mM CaCl2 in distilled water was prepared. Compounds 3a and 3b at the concentrations of 50 and 100 μg/mL were separately added in this solution. […] Initial pH was adjusted to 7.0 using 0.01 M HCl/NaOH. Approximately 0.2 g of cells were suspended in each set of solution. Suspension was kept in a double-jacketed glass container with constant stirring. Again, the pH of suspension was maintained as 7.0 for 1 min by using 0.01 N NaOH. The rate of H^+ extrusion was then monitored and calculated from the volume of 0.01 N NaOH consumed per min per mg weight of cells. Glucose has been reported as the stimulator of proton extrusion pump. Therefore above experiment was also repeated in the presence of 5 mM of glucose.

The mark [11] stands for this setting: 50 μg/mL in presence of glucose (5 mM).
Where [12] appears, read: 100 μg/mL in presence of glucose (5 mM).
The mark [13] stands for this setting: 100 μg/mL, no glucose, read-out: Inhibition of H+ extrusion.
Setting [14] is: in the presence of glucose (5 mM), 100 μg/mL, read-out: Inhibition of H+ extrusion rate.

In brackets after ≈: the same amount, converted by molar mass. Like-named read-outs stand apart in the source and are kept apart here.

T1 sequence (P28877 whole entry): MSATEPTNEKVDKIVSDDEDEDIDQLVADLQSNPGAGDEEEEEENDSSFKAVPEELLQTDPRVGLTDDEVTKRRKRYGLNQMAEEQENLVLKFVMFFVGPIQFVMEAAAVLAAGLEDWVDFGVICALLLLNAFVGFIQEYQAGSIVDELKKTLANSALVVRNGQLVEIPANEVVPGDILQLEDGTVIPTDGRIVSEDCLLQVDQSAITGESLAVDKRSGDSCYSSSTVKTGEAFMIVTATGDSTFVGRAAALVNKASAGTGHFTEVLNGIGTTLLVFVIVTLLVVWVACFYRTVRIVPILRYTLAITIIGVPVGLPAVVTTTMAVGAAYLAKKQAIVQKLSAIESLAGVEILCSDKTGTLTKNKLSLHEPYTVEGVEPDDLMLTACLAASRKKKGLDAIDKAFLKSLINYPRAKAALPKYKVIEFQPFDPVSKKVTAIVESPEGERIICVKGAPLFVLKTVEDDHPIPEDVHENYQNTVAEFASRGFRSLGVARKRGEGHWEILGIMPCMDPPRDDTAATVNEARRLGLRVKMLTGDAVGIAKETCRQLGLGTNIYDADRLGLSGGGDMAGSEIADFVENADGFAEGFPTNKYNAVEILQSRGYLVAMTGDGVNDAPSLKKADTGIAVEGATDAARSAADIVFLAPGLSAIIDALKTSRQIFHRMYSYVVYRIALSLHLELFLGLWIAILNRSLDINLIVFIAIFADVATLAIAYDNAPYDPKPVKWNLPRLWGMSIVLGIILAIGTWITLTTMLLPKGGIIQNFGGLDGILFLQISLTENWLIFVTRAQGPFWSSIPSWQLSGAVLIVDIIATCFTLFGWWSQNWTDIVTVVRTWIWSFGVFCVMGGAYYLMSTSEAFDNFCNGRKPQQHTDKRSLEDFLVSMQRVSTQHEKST

Broadly, the IC50 is the concentration at which inhibition is half-maximal. By MIC is commonly meant the least concentration at which growth counts as inhibited. A low value points to inhibition by little substance. The inhibition is the change of the read-out against control, counted positive when it falls. With `c1ccc(Cn2cc(COc3cccc4cccnc34)nn2)cc1` [Compound 3a], the IC50 in assay [1] worked out at 0.044 ± 0.11 µg/mL (≈ 0.139 µM); in assay [2], 1.9 ± 0.09 µg/mL (≈ 6.01 µM); in assay [3], 3.3 ± 0.065 µg/mL (≈ 10.4 µM); in [4] it was 4.1 ± 0.02 µg/mL (≈ 13 µM); in assay [5], 12.02 ± 0.02 µg/mL (≈ 38 µM); in [6], 3.6 ± 0.07 µg/mL (≈ 11.4 µM). Besides, the IC50 in assay [7] came to 2.3 ± 0.05 µg/mL (≈ 7.27 µM). The compound further yielded an MIC in assay [7] of 25 µg/mL (≈ 79 µM). Further, the “Lag phase (no growth)” value in [8] (2MIC, MIC and MIC/2, all three strains) is reported as “more than 24 h”. Besides, in [9] (2MIC, after 48 h, all three test strains), the “Change in CFU/mL” value is reported as “significant decrease in CFU/mL”. In assay [9], the “Fungicidal or fungistatic nature” value is “fungicidal”. Further, the “Range of relative H+ efflux rate” value in [10] (setting [11]) is given as 33.40 ± 1.6 ×10^−6 mol min^−1 mg cells^−1; in [10] (50 μg/mL, no glucose) it was 19.60 ± 0.9 ×10^−6 mol min^−1 mg cells^−1; in assay [10] (setting [12]), 26.60 ± 1.3 ×10^−6 mol min^−1 mg cells^−1; in assay [10] (100 μg/mL, no glucose) it was 11.00 ± 0.5 ×10^−6 mol min^−1 mg cells^−1. In addition, the inhibition at 100 µg/mL amounted to 70% in assay [10] (setting [13]) and 52% in assay [10] (setting [14]).

`Clc1ccc(OCc2cn(Cc3ccccc3)nn2)c2ncccc12` [Compound 3b, 8-((1-Benzyl-1H-1,2,3-triazol-4-yl)methoxy)-5-chloroquinoline]: the IC50 in assay [1] is 25.4 ± 0.76 µg/mL (≈ 72.4 µM); in assay [2], 33.7 ± 1.51 µg/mL (≈ 96.1 µM); in assay [3], 41.5 ± 1.24 µg/mL (≈ 118 µM); in [4] it was 47.1 ± 0.39 µg/mL (≈ 134 µM); in [5] it was 73.3 ± 1.41 µg/mL (≈ 209 µM); in assay [6] it was 23.6 ± 0.83 µg/mL (≈ 67.3 µM). For the same compound, the IC50 in assay [7] is 32.8 ± 1.25 µg/mL (≈ 93.5 µM). Besides, the MIC in assay [7] was 250 µg/mL (≈ 713 µM). In addition, the Growth inhibition result in [8] (at 2MIC and MIC) is “significant growth inhibition”. For the same compound, the “Change in CFU/mL with time interval” value in assay [9] (dose dependent) was “only slight increase in CFU/mL”. For the same compound, the “Fungicidal or fungistatic nature” value in [9] is given as “fungistatic”. The “Range of relative H+ efflux rate” value is listed as 23.30 ± 1.1 ×10^−6 mol min^−1 mg cells^−1 in assay [10] (setting [11]); 23.40 ± 1.1 ×10^−6 mol min^−1 mg cells^−1 in [10] (50 μg/mL, no glucose); 20.00 ± 1.0 ×10^−6 mol min^−1 mg cells^−1 in [10] (setting [12]); 19.30 ± 0.9 ×10^−6 mol min^−1 mg cells^−1 in assay [10] (100 μg/mL, no glucose). The inhibition at 100 µg/mL in [10] (setting [13]) was found to be 47%; in assay [10] (setting [14]) it was 64%.
